What all share (type): in vivo
The test system of one series is Abutilon theophrasti. The series can be described thus: Post-emergence herbicidal action against weed plants. As to conditions: 504 h, one-leaf stage, visual assessment after about 3 weeks vs untreated controls (100% = plants have died). The method, then:
(§1) 2. Post-emergence Herbicidal Action Against Weed Plants Seeds of monocotyledonous and dicotyledonous weed and crop plants are placed in sandy loam in wood-fiber pots, covered with soil and cultivated in a greenhouse under good growth conditions. 2 to 3 weeks after sowing, the test plants are treated at the one-leaf stage. The inventive compounds formulated in the form of wettable powders (WP) or as emulsion concentrates (EC) are then sprayed onto the green parts of the plants as an aqueous suspension or emulsion at a water application rate of 600 to 800 I/ha (converted) with addition of 0.2% wetting agent. After the test plants have been left to stand in the greenhouse under optimal growth conditions for about 3 weeks, the action of the formulations is assessed visually in comparison to untreated controls (herbicidal action in percent (%): 100% activity=the plants have died, 0% activity=like control plants).

A further series relates to Stellaria media. Described as above. As to conditions: 504 h, one-leaf stage, visual assessment after about 3 weeks vs untreated controls (100% = plants have died). The method, then:
as §1

The next series concerns maize. The series can be described thus: Pre-emergence test, damage to crop plants. As to conditions: 320 g/ha, visual assessment after 3 weeks.

Turning to `COc1c([N+](=O)[O-])ccc(C(=O)Nc2nnnn2C)c1Br` [1-1, 2-bromo-3-methoxy-N-(1-methyl-1H-tetrazol-5-yl)-4-nitrobenzamide], the pest or weed control at 80 g/ha in the series on Abutilon theophrasti and with Stellaria media was no less than 80% throughout.

Consider `CCOCCOc1c([N+](=O)[O-])ccc(C(=O)Nc2nnnn2C)c1Br` [1-20], for which the damage in maize entry with maize is listed as “no damage whatsoever”.

Consider `Cn1nnnc1NC(=O)c1ccc([N+](=O)[O-])c(OCC2COCCO2)c1Br` (stereo not shown) [1-34], for which the pest or weed control at 80 g/ha with Abutilon theophrasti and in the series on Stellaria media was no less than 80% throughout. In addition, in the series with maize, the damage in maize result is recorded as “no damage whatsoever”.

As to `COc1c([N+](=O)[O-])ccc(C(=O)Nc2nnnn2C)c1Cl` [1-44], the pest or weed control at 80 g/ha with Abutilon theophrasti and with Stellaria media was no less than 80% in each case.

For `COCCOc1c([N+](=O)[O-])ccc(C(=O)Nc2nnnn2C)c1Cl` [1-61], the damage in maize result in the series on maize is reported as “no damage whatsoever”.

Take `COCCCOc1c([N+](=O)[O-])ccc(C(=O)Nc2nnnn2C)c1Cl` [1-62]: in the series on maize, the damage in maize result is on record as “no damage whatsoever”.

On to `Cn1nnnc1NC(=O)c1ccc([N+](=O)[O-])c(OCC2COCCO2)c1Cl` (stereo not shown) [1-77], for which the pest or weed control at 80 g/ha in the series with Abutilon theophrasti and in the series with Stellaria media was no less than 80% in each case. Besides, the damage in maize result with maize was “no damage whatsoever”.

For `Cn1nnnc1NC(=O)c1ccc([N+](=O)[O-])c(OCC2OCCO2)c1Cl` [1-78], the pest or weed control at 80 g/ha in the series on Abutilon theophrasti and with Stellaria media was no less than 80% each time. Also, in the series with maize, the damage in maize entry is “no damage whatsoever”.

As to `Cc1c(C(=O)Nc2nnnn2C)ccc([N+](=O)[O-])c1OCC1COCCO1` (stereo not shown) [1-119], the pest or weed control at 80 g/ha in the series with Abutilon theophrasti and with Stellaria media was no less than 80% each time.

Regarding `CCn1nnnc1NC(=O)c1ccc([N+](=O)[O-])c(OC)c1Br` [2-1], the pest or weed control at 80 g/ha in the series with Abutilon theophrasti and with Stellaria media was no less than 80% in each case.

In the case of `CCn1nnnc1NC(=O)c1ccc([N+](=O)[O-])c(OCCCOC)c1Br` [2-19], the damage in maize result with maize is given as “no damage whatsoever”.

For the molecule `CCn1nnnc1NC(=O)c1ccc([N+](=O)[O-])c(OCC2COCCO2)c1Br` (stereo not shown) [2-34], the pest or weed control at 80 g/ha in the series on Abutilon theophrasti and in the series with Stellaria media was no less than 80% each time.

Take `CCn1nnnc1NC(=O)c1ccc([N+](=O)[O-])c(OC)c1Cl` [2-44]: the pest or weed control at 80 g/ha in the series on Abutilon theophrasti and with Stellaria media was no less than 80% each time.

Consider `CCn1nnnc1NC(=O)c1ccc([N+](=O)[O-])c(OCCOC)c1Cl` [2-61], for which the damage in maize entry with maize is given as “no damage whatsoever”.

Regarding `CCn1nnnc1NC(=O)c1ccc([N+](=O)[O-])c(OCCCOC)c1Cl` [2-62], in the series with maize, the damage in maize entry was “no damage whatsoever”.

For the molecule `CCn1nnnc1NC(=O)c1ccc([N+](=O)[O-])c(OCCOC)c1C` [2-104], the damage in maize entry in the series with maize was “no damage whatsoever”.

`CCn1nnnc1NC(=O)c1ccc([N+](=O)[O-])c(OCC2COCCO2)c1C` (stereo not shown) [2-120]: the pest or weed control at 80 g/ha in the series on Abutilon theophrasti and in the series on Stellaria media was no less than 80% in each case.

Consider `CCn1nnnc1NC(=O)c1ccc([N+](=O)[O-])c(OCC(=O)N(C)C)c1C` [2-123], for which, in the series with maize, the damage in maize entry is reported as “no damage whatsoever”.

The values above are taken from US9169219B2, “Herbicidally active 4-nitro-substituted N-(tetrazol-5-yl)-, N-(triazol-5-yl)-, and N-(1,3,4-0XADIAZOL-2-yl)aryl carboxylic acid amides” (BAYER INTELLECTUAL PROPERTY GMBH, priority 2012, dated 2015).
